18 compounds from patent publication US4719046A, “Crysene derivatives” (Burroughs Wellcome Co., priority 1984, dated 1988) can be followed below.

For data set [1], the system named is CD2-F1 mice. As to the kind of experiment: LD20 in the P388/0 test mice. Type of data set: in vivo, mouse (CD2-F1). Particulars: IP days 1, 5, 9, doses on a mg/kg basis. The procedure:
(§1) CD2-F1 mice, of the same sex, weighing 20±3 g, are used for this test. Control and test animals are injected intraperitoneally with a suspension of ~10^6 viable P388/0 tumor cells on day 0. In each test, several dose levels which bracket the LD20 of the compound are evaluated; each dose level group contains six animals. The test compounds are prepared either in physiologic saline containing 0.05% Tween 80 or distilled water containing 5% dextrose and are administered intraperitoneally on days 1, 5, and 9 relative to tumor implant. Doses are on a mg/kg basis according to individual animals' body weights. The day of death for each animal is recorded, the median identified for each group and the ratios of median survival time for treated (T)/control (C) groups are calculated. The criterion for activity is T/C×100≥120%.
(§2) ^A Values in parentheses are the highest nontoxic dose where the
(§3) LD20 was not determined.

Data set [2] has as its system Streptococcus pyogenes (CN10). As to the kind of experiment: Antibacterial test, Streptococcus pyogenes (agar dilution). Type of data set: cell-based. An excerpt:
(§4) Anitbacterial testing against […] (S3264) and Streptococcus pyogenes (CN10) was done with slight modifications using standard agar dilution assays as outlined in Manual of Clinical Microbiology Second Ed., E. H. Lennette. E. H. Spaulding and J. P. Traunt Eds., American Society for Microbiology, Washington, DC, 1974

In data set [3] the test system is Mycoplasma smegmatis. The data set is described as follows: Antibacterial test, Mycoplasma smegmatis (agar dilution). Type of data set: cell-based.
Excerpt: as §4

In data set [4] the test system is Herpes simplex 1/vero. As to the kind of experiment: Herpes simplex 1/vero plaque inhibition screen. Type of data set: cell-based. An excerpt: Antiviral testing against Herpes simplex 1/vero was done using plaque inhibition methods as outlined in P. Collins and D. J. Bauer, Proc. N.Y. Acad. Sci. 284, 49 (1977) and by plaque reduction methods as outlined in P. Collins and D. J. Bauer, J. Antimicrobial Chemotherapy 3, Supplement A, 73(1977). The column headings labeled Score, Toxicity, and Zone of Inhibition refer to the plaque inhibition screen while the IC50 heading to the plaque reduction screen.

The test system of data set [5] is melanotic melanoma B16. As to the kind of experiment: Melanotic Melanoma B16 test. Type of data set: in vivo, mouse (B6C3-F1). Particulars: median survival T/C; IP days 1, 5, 9; active if >125%; dose mg/kg: 1C 100, 6G 50, 3 70, 2 75, 18B 70.
Excerpt: (§5) Methods for evaluating the antitumor activity of these compounds are essentially those used in the Tumor Panel by the Developmental Therapeutics Program, Division of Cancer Treatment, National Cancer Institute, A. Goldin, et al., Methods in Cancer Research, Vol. XVI, p. 165, Academic Press (1979). Some modifications, in dose level and schedule have been made to increase the testing efficiency.
as §1
B6C3-F1 mice of the same sex, weighing 20±3 g, are used for this test. A suspension of B16 cells is prepared from a non-necrotic portion of solid tumor tissue obtained from a passage mouse. One gram of tumor is homogenized in 9 mL ice-cold Earle's salts solution and filtered through 1000 mesh screen to remove debris. 0.5 mL of the resulting brei is injected intraperitoneally into each animal. Dosing is carried out as in the P388/0 and L1210 tests. Days of death are recorded for a 60 day period and T/C ratio calculated as in the P388/0 and L1210 tests. The criterion for activity is T/C×100>125%.

Data set [6] relates to Lewis lung carcinoma. As to the kind of experiment: Lewis Lung Carcinoma Test. Type of data set: in vivo, mouse (BD-F1; tumor from C57B1/6). To be noted: median survival T/C; 105 mg/kg days 1, 5, 9; active if ≥140%.
Excerpt: as §5
CD2-F1 mice, of the same sex, weighing 20±3 g, are used for this test. Control and test animals are injected intraperitoneally with a suspension of ~10^6 viable P388/0 tumor cells on day 0. In each test, several dose levels which bracket the LD20 of the compound are evaluated; each dose level group contains six animals. […] The day of death for each animal is recorded, the median identified for each group and the ratios of median survival time for treated (T)/control (C) groups are calculated. […]
This tumor arose spontaneously in the lung of a C57B1/6 mouse and is maintained by subcutaneous passage in that strain. […] In each test, several dose levels which bracket the LD20 for the compound are evaluated. […] The day of death for each animal is recorded, the median identified for each group and the ratios of median survival time for treated (T)/control (C) groups are calculated. […]

Data set [7] deals with colon 38 carcinoma. As to the kind of experiment: Colon 38 Carcinoma Test. Type of data set: in vivo, mouse (C57B1/6). To be noted: tumor weight T/C at day 20; 120 mg/kg IP days 1, 5, 9; active if ≤42%.
Excerpt: as §5
This chemically-induced tumor arose in a C57B1/6 mouse and is maintained as a solid tumor in that mouse strain. The subcutaneously growing solid tumor is aseptically excised from passage mice and placed in sterile saline. The tumor is trimmed free of visible necrotic and connective tissue, then divided into 2-3 mm cubes. A cube is implanted subcutaneously in the ventral thoracie region with a sterile trochar on day 0. In each test several dose levels which bracket the LD20 for the compound are evaluated. Ten animals are included in each dose level group and thirty animals in the untreated control group. The test compounds are prepared either in physiologic saline containing 0.05% Tween 80 or distilled water containing 5% dextrose and are administered intraperitoneally on days 1, 5 and 9 after tumor implant. […] At day 20, the animals are sacrificed and the longest (L) and shortest (W) dimensions of each tumor measured with vernier calipers. Tumor weight is calculated from the formula (L× (W)^2 /2). […]

Data set [8] concerns M5076 sarcoma. The data set is described as follows: M5076 Sarcoma Test. Type of data set: in vivo, mouse (B6C3-F1). Particulars: median survival T/C; 105 mg/kg IP days 1, 5, 9; active if ≥125%.
Excerpt: as §5, §1
This sarcoma arose as a solid tumor in the ovary of a C57B1/6 mouse and was subsequently converted to the ascitic form for intraperitoneal use. […]

Data set [9] has as its system lymphocytic leukemia L1210. As to the kind of experiment: Lymphocytic Leukemia L1210 Test. Type of data set: in vivo, mouse (CD2-F1). Particulars: median survival T/C; 120 mg/kg IP days 1, 5, 9; active if ≥125%.
Excerpt: as §5, §1
The protocol for this test is identical to that for P388/0, except that the number of L1210 cells implanted on day 0 is ~10^5 /mouse. […]

The nature of data set [10]: LD20 in the P388/0 test mice. Type of data set: in vivo, mouse (CD2-F1). To be noted: mouse, in vivo, IP days 1, 5, 9, doses on a mg/kg basis, read-out: LD20 column, value in parentheses: highest nontoxic dose where the LD20 was not determined. As for the experimental part:
as §1, §2, §3

The test system of data set [11] is lymphocytic leukemia P388/0. As to the kind of experiment: Lymphocytic Leukemia P388/0 Test. Type of data set: in vivo, mouse (CD2-F1). Particulars: median survival T/C; IP days 1, 5, 9; active if ≥120%; optimal dose mg/kg: 1B 121, 1C 115, 2 100, 3 100, 6G 65, 18B 88, 19H 110, 6H 60, 7 110, 9 300, 10B 1013, 11C 150, 12G 90, 5F 225, 13D 303, 14 196, 15B 250, 16 1012, 4B 180.
Excerpt: as §5, §1

SMILES strings stand for the structures. Where a name gives a salt, the structure may show the parent alone.

Consider `C[C@@H](O)C(C)(NCc1cc2c3ccccc3ccc2c2ccccc12)[C@@H](C)O` (relative stereo) [Example 5F], for which the LD20 in data set [1] is recorded as 225 mg/kg.
Still for that read-out and setting: the figure for `CS(=O)(=O)O.C[C@H](O)[C@@](C)(CO)NCc1cc2c3ccccc3ccc2c2ccccc12` (relative stereo) [Example 6H, (+-)(2R*,3S*)-2-((6-Chrysenylmethyl)amino)-2-methyl-1,3-butanediol methanesulfonate] is 60 mg/kg.
On the same count and under the same terms, the figure for `C[C@@H](O)[C@@](C)(CO)NCc1cc2c3ccccc3ccc2c2ccccc12.Cl` (relative stereo) [Example 7, (+-)(2R*,3R*)-2-((6-Chrysenylmethyl)amino)-2-methyl-1,3-butanediol hydrochloride] is 100 mg/kg.
In the case of `CC(CO)(CO)NCc1cc2c3ccccc3ccc2c2ccccc12.Cl` [Example 1B, 2-((6-Chrysenylmethyl)amino)-2-methyl-1,3-propanediol hydrochloride], the MIC in data set [2] and in data set [3] was ≤ 10 µg/mL in each case. The compound also registered an LD20 in data set [1] of 140 mg/kg. Moreover, the “Zone of Inhibition” value in [4] was found to be 43.
For the compound `CC(CO)(CO)NCc1cc2c3ccccc3ccc2c2ccccc12` [Example 1C, 2-((6-Chrysenylmethyl)amino)-2-methyl-1,3-propanediol methanesulfonate], the “T/C × 100% Excluding 60 day Survivors” value in data set [5] is “+146%”; in data set [6] it was “+191%”. Also, the results for the “T/C × 100%” value in [7] and in [8] were 36% and “+168%”, respectively. For the same compound, the “T/C × 100% Excluding 30 day Survivors” value in [9] is on record as “+252%”. Also, the LD20 in data set [1] is 105 mg/kg.
For `Cl.OCC(CO)(CO)NCc1cc2c3ccccc3ccc2c2ccccc12` [Example 2, 2-((6-chrysenylmethyl)amino)-2-hydroxymethyl-1,3-propanediol hydrochloride], the MIC in data set [2] and in data set [3] was 10 µg/mL each time. The “T/C × 100% Excluding 60 day Survivors” value in data set [5] is given as “+144%”. The compound further registered an LD20 in data set [1] of 100 mg/kg.
In the case of `CCC(CO)(CO)NCc1cc2c3ccccc3ccc2c2ccccc12.Cl` [Example 3, 2-((6-Chrysenylmethyl)amino)-2-ethyl-1,3-propanediol hydrochloride], the values for the MIC in data set [2] and in [3] were 10 µg/mL and > 100 µg/mL, respectively. Moreover, the “T/C × 100% Excluding 60 day Survivors” value in [5] is given as “+144%”. Further, in [1], the LD20 is given as 100 mg/kg.
Regarding `CC(CO)(CO)NCc1cc2c3ccccc3c(Cl)cc2c2ccccc12` [Example 4B, 2-(((12-Chloro-6-chrysenyl)methyl)amino)-2-methyl-1,3-propanediol methanesulfonate.1/3H2 O], the LD20 in [1] worked out at 180 mg/kg.
Consider `COCC(C)(CO)NCc1cc2c3ccccc3ccc2c2ccccc12.Cl` (centres unmarked) [Example 9D, 3-methoxy-2-((6-chrysenylmethyl)amino)-2-methyl-1-propanol hydrochloride], for which, in data set [1], the LD20 came to 425 mg/kg.
For `O[C@@H]1CCC[C@H](O)[C@H]1NCc1cc2c3ccccc3ccc2c2ccccc12` [Example 10B, (1α,2β,3α)-2-((6-Chrysenylmethyl)amino)-1,3-cyclohexanediol hydrochloride], the MTD in [10] was 675 mg/kg.
As to `CC(C)C(CO)(CO)NCc1cc2c3ccccc3ccc2c2ccccc12` [Example 11C, 2-((6-Chrysenylmethyl)amino)-2-isopropyl-1,3-propanediol hydrochloride 1/3 H2 O], in data set [1], the LD20 was found to be 150 mg/kg.
In turn, `CC(CO)(CCO)NCc1cc2c3ccccc3ccc2c2ccccc12` (centres unmarked) [Example 12G, 2-((6-chrysenylmethyl)amino)-2-methyl-1,4-butanediol hyrochloride.1/3EtOH] came in with an LD20 in [1] of 90 mg/kg.
On to `CS(=O)(=O)O.C[C@H](O)C(NCc1cc2c3ccccc3ccc2c2ccccc12)[C@@H](C)O` (stereo partly drawn) [Example 13D, meso-3-((6-Chrysenylmethyl)amino)-2,4-pentanediol methanesulfonate], for which, in [11], the “T/C × 100% (Excluding 30 Day Survivors)” value is “+200%”. In addition, the LD20 in data set [1] turned out to be 675 mg/kg.
Regarding `OCC(CO)NCc1cc2c3ccccc3ccc2c2ccccc12` [Example 14, 2-((6-Chrysenylmethyl)amino)-1,3-propanediol methanesulfonate], the LD20 in data set [1] is recorded as 160 mg/kg.
On the same count and under the same terms, the figure for `CCc1cc2c3ccccc3c(CNC(C)(CO)CO)cc2c2ccccc12` [Example 15B, 2-(((12-Ethyl-6-chrysenyl)methyl)amino)-2-methyl-1,3-propanediol methanesulfonate] is 150 mg/kg.
For the compound `CC(=O)OCC(C)(COC(C)=O)NCc1cc2c3ccccc3ccc2c2ccccc12` [Example 16, 2-((6-Chrysenylmethyl)amino)-2-methyl-1,3-propanediol diacetate], the MIC in [2] and in [3] was 10 µg/mL in each case. The compound further came in with an LD20 in [1] of 675 mg/kg.
Regarding `CC(C)(CO)NCc1cc2c3ccccc3ccc2c2ccccc12.Cl` [Example 18B, 2-((6-Chrysenylmethyl)amino)-2-methylpropanol hydrochloride], the results for the MIC in data set [2] and in [3] were ≤ 3 µg/mL and 10 µg/mL, respectively. Moreover, the “T/C × 100% Excluding 60 day Survivors” value in data set [5] is reported as “+125%”. This compound also registered an LD20 in data set [1] of 80 mg/kg.
Compound `CC(CO)(CO)NCc1ccc2ccc3c4ccccc4ccc3c2c1` [Example 19H, 2-((3-Chrysenylmethyl)amino)-2-methyl-1,3-propanediol methanesulfonate] returned an LD20 in data set [1] of 150 mg/kg.
